Assay results as given in patent US20240122879A1, “COMPOSITIONS AND METHODS FOR TREATING OCULAR CHEMICAL BURNS” (OHIO STATE INNOVATION FOUNDATION, priority 2022, published 2024).
Entries after “also recorded” stand apart in the source; their conditions may differ.

Tests used:
injured corneas [1] = test: Alkali induced corneal injury: corneal neovascularization, CD31 staining of corneal flat mount; assay type: in vivo, mice; settings: disulfiram 50 mg/kg i.p. daily, FIG. 7G, 7H
Description: All animal care and usage followed NIH guidelines and were in accordance with the ARVO Statement for the Use of Animals in Ophthalmic and Vision Research. Rodent studies received IACUC approval by The Ohio State University. For all corneal wound healing models, injury was induced under anesthesia, all animals received topical antibiotics, and topical and systemic analgesics were provided for at least 72 h. To induce corneal injury, a 1.5 mm filter paper soaked in 1N NaOH was applied to the axial cornea for 30 seconds. The filter paper was then removed and the cornea rinsed with PBS for two minutes. After the cornea was thoroughly rinsed, fluorescein stain was applied to the cornea to verify corneal ulceration. For disulfiram treatment of mice, disulfiram was dissolved in sesame oil (12.5 mg/ml). Mice were injected 16 hours before injury through intraperitoneal injection (50 mg/kg); injection continued daily for the duration of the experiment. For Gr-1 antibody treatment, mice were injected 16 hours and immediately before injury through intraperitoneal injection (100 μg/mouse). Dissected eye from mice were fixed in 4% PFA for 24 to 48 hours at 4° C. […]

[2] = tested on: IL-1β, caspase 1 and GsdmD; settings: discussion statement following citation of Hu et al.; cited from earlier work
Caspase-3 = test: Western blot of Caspase-3 cleavage in isolated primary mouse neutrophils; assay type: cell-based; settings: primary neutrophils from mouse bone marrow; FIG. 12
Source text: (§1) To further confirm neutrophils undergo pyrotposis, primary neutrophils were isolated and purified from mouse bone marrow. Isolated neutrophils underwent pyroptosis quickly after isolation followed by activation of apoptosis, as evidenced by cleaved caspase-3 (FIG. 11).
(§2) Bone marrow samples were obtained as previously described. Briefly, lower limbs were collected from euthanized mice. All attached soft tissue was removed to fully expose the femurs and tibias. An 18G needle was inserted into hollow of the bone and pulse flush buffer (2% FBS in PBS) used to flush marrow into a 15 ml sterile centrifuge tube. The solution was then filtered with a 70-100 μm filter. The solution was centrifuged at […], and the bone marrow cells were resuspended in red blood cell lysis buffer for 5 minutes.
(§3) Separation of neutrophils using density gradient centrifugation was performed as previously described (Swamydas, et al. J Vis Exp. 2013 (77):e50586). The bone marrow cells were resuspended in 1 ml of ice-cold sterile PBS. Using a 15 mL conical tube, 3 ml of Histopaque 1119 was first added followed by an overlay of 3 mL of Histopaque 1077. The bone marrow cell suspension was then overlaid on the Histopaque 1077. The samples were centrifuged for 30 min at 2,000 rpm at 25° C. Neutrophils were then at the interface of the Histopaque 1119 and Histopaque 1077 layers. […]

mCECs = test: Scratch wound assay of mCECs cultured with dissected corneas from treated mice; assay type: cell-based, mouse; settings: FIG. 3A, 3B
Description: The potential function of neutrophil pyroptosis in corneal wound healing was next tested. Mouse corneas were first dissected with or without injury from WT, GsdmD^−/−, Gr-1 treated, and disulfiram treated mice, and cultured the dissected corneas with mCECs. A scratch wound was then created in the mCEC.
For disulfiram treatment of mice, disulfiram was dissolved in sesame oil (12.5 mg/ml). Mice were injected 16 hours before injury through intraperitoneal injection (50 mg/kg); injection continued daily for the duration of the experiment. For Gr-1 antibody treatment, mice were injected 16 hours and immediately before injury through intraperitoneal injection (100 μg/mouse).
To induce cellular migration, an in vitro scratch test was performed using mCECs. Cells were treated with dissected corneas or cytokines when they reached confluence, were subsequently scratched with a micropipette tip, and incubated for up to 12 hrs. Images were taken at 0, 3, 6, and 9 hours after the initial scratch. Images of wound closure were quantified by using ImageJ software.

Caspase-1 = test: Western blot: Caspase-1 cleavage after disulfiram treatment; assay type: in vivo, mice; settings: FIG. 17
Source text: (§4) While neutrophil pyroptosis plays a detrimental role during corneal wound healing, the initial neutrophil infiltration is critical for removing dead corneal cells and debris, which is part of the healing process. Thus, complete depletion of neutrophil may not be the ideal option to promote normal corneal healing. Disulfiram is an FDA approved drug, which has been recently been identified as a pyroptosis inhibitor (Hu, et al. Nat Immunol. 2020 21(7):736-745). Thus, tested was whether application of disulfiram could be an effective means to promote corneal wound healing. […] To confirm treatment of disulfiram could inhibit post-injury pyroptosis, Western blot analysis was performed on corneal samples before and after injury.
(§5) All animal care and usage followed NIH guidelines and were in accordance with the ARVO Statement for the Use of Animals in Ophthalmic and Vision Research. Rodent studies received IACUC approval by The Ohio State University. For all corneal wound healing models, injury was induced under anesthesia, all animals received topical antibiotics, and topical and systemic analgesics were provided for at least 72 h. To induce corneal injury, a 1.5 mm filter paper soaked in 1N NaOH was applied to the axial cornea for 30 seconds. The filter paper was then removed and the cornea rinsed with PBS for two minutes. […]

injured corneas [3] = test: Alkali induced corneal injury: re-epithelialization / wound healing (fluorescein); assay type: in vivo, mice; settings: disulfiram 50 mg/kg i.p. daily from 16 h before injury, antibodies before wounding, FIG. 7C-7F
Description: All animal care and usage followed NIH guidelines and were in accordance with the ARVO Statement for the Use of Animals in Ophthalmic and Vision Research. Rodent studies received IACUC approval by The Ohio State University. For all corneal wound healing models, injury was induced under anesthesia, all animals received topical antibiotics, and topical and systemic analgesics were provided for at least 72 h. To induce corneal injury, a 1.5 mm filter paper soaked in 1N NaOH was applied to the axial cornea for 30 seconds. The filter paper was then removed and the cornea rinsed with PBS for two minutes. After the cornea was thoroughly rinsed, fluorescein stain was applied to the cornea to verify corneal ulceration. For disulfiram treatment of mice, disulfiram was dissolved in sesame oil (12.5 mg/ml). Mice were injected 16 hours before injury through intraperitoneal injection (50 mg/kg); injection continued daily for the duration of the experiment. For Gr-1 antibody treatment, mice were injected 16 hours and immediately before injury through intraperitoneal injection (100 μg/mouse).

GsdmD [4] = test: Western blot of GsdmD cleavage in isolated primary mouse neutrophils; assay type: cell-based; settings: primary neutrophils from mouse bone marrow; FIG. 12
Source text: as §1, §2, §3

GsdmD [5] = test: Western blot of corneal samples after alkali injury: GsdmD cleavage / pyroptosis; assay type: in vivo, mice; settings: FIG. 2C
Source text: as §4, §5

Structure (SMILES): CCN(CC)C(=S)SSC(=S)N(CC)CC [Disulfiram, Tetraethylthiuram disulfide]
- corneal neovascularization (CNV), CD31 staining (injured corneas [1]): significantly reduced; also recorded: significantly reduce neovascularization
- cleavage of caspase 1 and GsdmD [2]: inhibit the cleavage of caspase 1 and GsdmD
- release of mature IL-1β [2]: inhibit the release of mature IL-1β
- Caspase-3 cleavage in isolated neutrophils (Caspase-3): not cleavage of Caspase-3
- inhibitory effects of injured corneas on mCECs migration (scratch wound closure) (mCECs): greatly reduced
- cleavage of Caspase-1 (Caspase-1): suppress cleavage
- corneal wound healing / re-epithelialization (injured corneas [3]): dramatically accelerated wound healing; also recorded: improved healing outcomes; also recorded: promote the re-epithelialization
- GsdmD cleavage in isolated neutrophils (GsdmD [4]): inhibits cleavage of GsdmD; also recorded: significantly inhibit
- cleavage of GsdmD (GsdmD-N expression) (GsdmD [5]; FIG. 17 (disulfiram), 24 hours after injury (Gr-1 antibody)): suppress cleavage
- activation of pyroptosis after corneal injury (GsdmD [5]; corneal samples after alkali injury, FIG. 17): effectively inhibited pyroptosis
